Experimental data reported in patent US12569468B2, “Use of palovarotene in treatment against HBV virus” (YANG SHENG TANG COMPANY, LTD., priority 2020, dated 2026).

How the values were obtained:
HBV [1] = test: Inhibitory effect on HBV infection in infection model HepG2-hNTCP 2B1 (drug before infection); assay type: cell-based, hepatitis B virus; settings: 1, 5, 25 μM, drug from 24 h before infection to day 8, compared with blank group
Excerpt: The human sodium-taurocholate cotransporting polypeptide (hNTCP) gene and the red fluorescent protein (mCherry) gene were constructed in a bicistronic expression cassette regulated by tetracycline-inducible promoter, the expression cassette was stably integrated into HepG2-Tet On cells by using a lentiviral system, a stable cell line HepG2-hNTCP 2B1 with high expression of hNTCP was obtained by using flow cytometry sorting technology, and this cell model supported HBV infection and generated HBV-related indicators. (For the construction method of this cell model, please refer to: Ya-Li Zhang, Ying Gao, Jia-Li Cao, Jing-Hua Zhao, Tian-Ying Zhang, ChuanLai Yang, Hua-Long Xiong, Ying-Bin Wang, Shan-Hai Ou, Tong Cheng, Chang-Rong Chen, Quan Yuan & Ning-Shao Xia (2019), Robust in vitro assay for analyzing the neutralization activity of serum specimens against hepatitis B virus, Emerging Microbes & Infections, 8:1, 724-733, DOI: 10.1080/22221751.2019.1619485).
This experiment was carried out in a 24-well culture plate.
About 1.5×10^5 HepG2-hNTCP 2B1 cells were plated in each well, and 500 μL of medium B was added. After the cells adhered, medium A was used for replacement to perform the induction with Doxycycline during the whole experiment.
After 72 hours of the induction with Doxycycline, 500 μL of drug-containing medium A was added to each well to perform drug treatment for 24 h, and then the cells were infected with HBV, the virus amount for infection per well was 100 MOI. Before infection, HBV solution was obtained by diluting HBV in medium C, and the infection volume was 250 μL per well. […]
HBsAg (chemiluminescence enzyme immunoassay (CLEIA), product standard number: YZB/Guo 0346-2014) and HBeAg (enzyme-linked immunosorbent assay (ELISA), product standard number: YZB/Guo 0216-2013) were detected using the Beijing Wantai Company's detection kits, and the specifical detection operations were carried out according to the detection methods described in the instructions in the kits.
After the collected cells were washed with PBS, automated extraction was performed on a nucleic acid extraction workstation (purchased from GenMagBio, model: DOF-9696) using a viral DNA & RNA extraction kit (Beijing GenMagBio) (for the extraction procedure, please refer to the instrument manual) to obtain HBV DNA. The HBV DNA was quantified by probe real-time fluorescent quantitative PCR, in which the reagent used was Premix Ex Taq™ (Takara), the instrument used was Roche's LightCycler® 96, the primer sequences used for fluorescence quantification were shown in Table 1, and the fluorescence quantitative reaction system was shown in Table 2. […]

HBV [2] = test: Therapeutic effect in high copy replication model HepAD38; assay type: cell-based, hepatitis B virus; settings: 5 μM
Excerpt: HepAD38 is a hepatoma cell line (D genotype) that stably integrates the HBV genome, it expresses HBV under conditions that may be regulated with tetracycline. […] The HepAD38 has a DNA level about 10 times that of HepG2.2.15, and thus is a high-copy HBV in vitro replication cell model (for the construction method of this cell model, please refer to: Ladner S K, Otto M J, Barker C S, et al. Inducible expression of human hepatitis B virus (HBV) in stably transfected hepatoblastoma cells: a novel system for screening potential inhibitors of HBV replication. Antimicrob Agents Chemother. 1997; 41(8):1715-1720.).
This experiment was carried out in a 24-well culture plate. […] About 4×10^5HepAD38 cells were plated in each well, 500 μL of medium G containing tetracycline hydrochloride (Tetracycline) was added to each well, Day 0 was set 48 h after the cells were plated, and the medium G containing tetracycline hydrochloride (Tetracycline) was removed at the same time, fresh drug-containing medium F was used for replacement, and then fresh drug-containing medium F was used for replacement every two days until the 8th day, and the levels of HBsAg in the cell supernatant and intracellular HBV DNA were detected on the 8th day. For the method for detection, please refer to Example 1.

HBV cccDNA = test: Southern blot detection of HBV cccDNA in HepAD38; assay type: cell-based, hepatitis B virus; settings: 5 μM, 8 days, inhibitory effect inferior to that of control group (ETV 5 μM)
Experimental: The Southern blot experiment was performed on 6 cm^2 culture plates. About 4.2×10^6 HepAD38 cells were plated in each 6 cm^2 culture plate, and medium G containing tetracycline hydrochloride (Tetracycline) was added. During the experiment, the medium G containing tetracycline hydrochloride was removed, and the drug-containing medium F was added at the same time for drug treatment, in which the treatment concentration of test drug Palovarotene was 5 μM, and the control group used Entecavir (ETV) at a concentration of 5 μM for treatment, and the treatment time was 8 days.
The specific Southern blot detection method was carried out with reference to Example 3.

HepaRG M14a = test: Safety assessment, CCK-8 cell activity, HepaRG M14a; assay type: cell-based; settings: 1 μM, 5 μM and 25 μM, 6 days treatment
Experimental: This experiment was carried out in a 96-well culture plate, with 8×10^4 corresponding cells plated in each well, and the corresponding medium volume was 100 μL, in which each drug to be tested in the HepG2-hNTCP 2B1, HepaRG M14A and primary hepatocyte experimental groups had three final concentrations of 1 μM, 5 μM and 25 μM, each drug to be tested in the HepAD38 cell experimental group had two final concentrations of 1 μM and 5 μM (the drug was diluted with the corresponding medium to the final concentrations, specifically please refer to Example 1, Example 2, Example 4 and Example 5), and to the blank group the same volume of culture medium without drug was added. After the cells had grown to a suitable density, drug was added to perform treatment for 6 days, during which, the medium was changed every two days with fresh drug-containing medium. After the drug treatment, 110 μL of medium containing Beyotime CCK-8 cell activity detection reagent (purchased from Beyotime, Art. No. C0038) (the volume ratio of medium to CCK-8 reagent was 100:10) was used for replacement, the cells were incubated at 37° C. for 30 min, and then all the supernatant was collected for detection of absorbance. The absorbance value was read on PHOMO microplate reader purchased from Zhengzhou Autobio.

[3] = p<0.05, dose-dependent in some extent

## CC1(C)CCC(C)(C)c2cc(Cn3cccn3)c(/C=C/c3ccc(C(=O)O)cc3)cc21 [Palovarotene]
HBV [1]; p<0.0001, dose-dependent in some extent
  level of HBV cccDNA: effectively inhibit
HBV [1]; p<0.001, dose-dependent in some extent
  level of intracellular HBV DNA: effectively inhibit
HBV [1]; [3]
  level of HBeAg in the cell supernatant: effectively inhibit
  level of HBsAg in the cell supernatant: effectively inhibit
HBV [2]; day 8, p<0.01
  surface antigen production (HBsAg in cell supernatant): significant inhibitory effect
HBV [2]; day 8, p<0.05
  HBV DNA (intracellular): significant inhibitory effect
HBV cccDNA
  level of HBV cccDNA (Southern blot): significantly inhibit
HepaRG M14a
  CCK-8 absorbance value (cell activity) vs blank group: not significantly different
